Entries after “also recorded” stand apart in the source; their conditions may differ.
Columns and labels:
Type in all cases: cell-based
Collagen-1a1 = assay: Collagen 1a1 levels in human IPF-PCLS culture supernatants (single-plex ELISA); conditions: for Collagen 1a1 secretion: single treatment; for Col1A1: after 4-day dosing
Procedure: (§1) PCLS preparation and culture: PCLS were prepared from a single explanted human IPF lung and rested for 48 hrs to allow the post-slicing stress period to elapse before experiments began. PCLS were subsequently incubated with vehicle (0.1% DMSO), tranilast as a 1:1 l-lysine tranilast salt at 2 escalating concentrations (31.25 μM, 125 μM), pirfenidone at 3 escalating concentrations (0.25 mM, 1 mM, 2.5 mM) or nintedanib at 3 escalating concentrations (0.25 μM, 1 μM, 2.5 μM) in the presence or absence of Tranilast at 2 escalating concentrations (31.25 μM, 125 μM) for a further 96 hrs. PCLS culture media and all compounds were refreshed at 24 hrs intervals. All PCLS were harvested at 144 hrs.
(§2) Experimental groups: Twenty-one (21) different groups with n=6 human PCLS (total n=126 per lung) were investigated as shown in Table 4 below. PCLS were prepared from n=1 individual human IPF lungs.
(§3) PCLS Treatments and Media Collections: PCLS were incubated for a 48 hr rest period. Post-rest, PCLS were incubated for a further 96 hrs in the presence or absence of inhibitors as outlined above. PCLS culture media, including all compounds, were refreshed and harvested at 24 hrs intervals from 48 hrs. All PCLS were harvested at 144 hrs.
(§4) PCLS harvest: Cell culture supernatant (n=6 per group) were collected every 24 hrs and snap frozen for quantification of inflammatory cytokines and soluble ECM proteins. At harvest, PCLS (n=6 per group) and cell culture media (n=6 per group) were snap frozen for quantification of inflammatory cytokines and soluble ECM proteins.
(§5) Soluble outputs analysis: Anti-inflammatory potential was assessed by determining the levels of the inflammation markers MCP-1, IL-6, GMCSF, IL-8, and IL-1β in the tissue culture supernatants experiment (n=213 samples (n=630 samples; n=126 at 48 hrs, 72 hrs, 96 hrs, 120 hrs and 144 hrs) were quantified using a MSD multiplex ELISA (MesoScaleDiscovery). Anti-fibrotic potential was assessed by determining the levels of the fibrosis markers Collagen-1a1, TIMP1, and Fibronectin in the tissue culture supernatants (n=630 samples as above) were quantified using a single-plex ELISA (R&D). Summary data for all inflammatory markers and fibrotic markers in PCLS treated with pirfenidone (FIGS. 1a and 1b) or nintedanib (FIGS. 2a and 2b) in the presence or absence of Tranilast at 144 hrs only. Graphs are represented by n=6 tissue culture media per condition, per time point. Data is presented as mean±SEM with individual values per tissue culture media.

IL-6 = IL-6 levels in human IPF-PCLS culture supernatants (MSD multiplex ELISA); conditions: single treatment, any concentration tested
Procedure: as §1, §2
(§6) PCLS Treatments and Media Collections: PCLS were incubated for a 48 hr rest period. […]
as §4
as §5, with “Graphs are represented by n=6 tissue culture media per condition, per time point. Data is presented as mean±SEM with individual values per tissue culture media.” left out

IL-8 = IL-8 levels in human IPF-PCLS culture supernatants (MSD multiplex ELISA); conditions: single treatment, any concentration tested
Procedure: as §1, §2, §6, §4
as §5, with “Graphs are represented by n=6 tissue culture media per condition, per time point. Data is presented as mean±SEM with individual values per tissue culture media.” left out

MCP-1 = MCP-1 levels in human IPF-PCLS culture supernatants (MSD multiplex ELISA); conditions: for MCP-1: after 4-day dosing; for MCP-1 secretion: any concentration tested, human IPF PCLS supernatant
Procedure: as §1, §2, §3, §4, §5

Fibronectin = Fibronectin levels in human IPF-PCLS culture supernatants (single-plex ELISA); conditions: single treatment, high concentration, at 144 hrs
Procedure: as §1, §2, §6
PCLS harvest: Cell culture supernatant (n=6 per group) were collected every 24 hrs and snap frozen for quantification of inflammatory cytokines and soluble ECM proteins. At harvest, PCLS (n=6 per group) and cell culture media (n=6 per group) were snap frozen for quantification of inflammatory cytokines and soluble ECM proteins. […]

[1] = alone (suboptimal / ineffective concentration)
[2] = suboptimal concentrations alone

SMILES | Collagen 1a1 secretion (Collagen-1a1; any concentration tested) | IL-6 secretion (IL-6) | IL-8 secretion (IL-8) | MCP-1 (MCP-1; [1]) | MCP-1 secretion (MCP-1; single treatment) | Col1A1 (Collagen-1a1; high concentration alone) | Col1A1 (Collagen-1a1; [2]) | Fibronectin secretion (Fibronectin) | MCP-1 (MCP-1; high concentration alone) | Collagen 1a1 secretion (Collagen-1a1; high concentration) | MCP-1 levels (MCP-1; single treatment, high concentration)
COC(=O)c1ccc2c(c1)NC(=O)/C2=C(\Nc1ccc(N(C)C(=O)CN2CCN(C)CC2)cc1)c1ccccc1 [nintedanib] | little to no effect | Little to no effect | little to no effect | no effect; also recorded: neither nintedanib (Nin) nor tranilast (TL) alone effected | little to no effect | – | – | – | – | – | –
Cc1ccc(=O)n(-c2ccccc2)c1 [pirfenidone] | concentration dependently attenuated | Little to no effect | concentration dependently attenuated | minimal effect | concentration dependently attenuated | strongly inhibited | minimal effect | attenuation | strongly inhibited | – | –
COc1ccc(/C=C/C(=O)Nc2ccccc2C(=O)O)cc1OC [tranilast, 2-[[3-(3,4-dimethoxyphenyl)-1-oxo-2-propenyl]amino]benzoic acid] | – | Little to no effect | little to no effect | minimal effect; also recorded: neither nintedanib (Nin) nor tranilast (TL) alone effected | – | – | minimal effect | – | – | marginally reduced | marginally reduced

Reference: patent US20250161250A1, “COMPOSITIONS AND METHODS FOR TREATMENT OF IDIOPATHIC PULMONARY FIBROSIS” (NUFORMIX TECHNOLOGIES LIMITED, priority 2022, published 2025)
